Data: patent US11414422B2, “Substituted pyrido[4,3-b]indoles and azepino[4,5-b]indoles as inhibitors of cGAS” (The Rockefeller University, priority 2018, dated 2022)
Read-outs that look alike come from different tables or passages of the source.

Experiments:
[1] = tested on: primary human macrophage cells; assay: IFNB1 mRNA expression, qRT-PCR, primary human macrophages; assay type: cell-based; settings: read-out: Human Macrophage, qRT-PCR IC50
THP1 cells = assay: IFNB1 mRNA expression, qRT-PCR, THP1 cells; assay type: cell-based; settings: Homo sapiens, read-out: THP1, qRT-PCR IC50
THP1-Dual cells = assay: Cell-based Lucia luciferase assay in THP1-Dual cells (dsDNA transfection); settings: Homo sapiens, 1 h pre-incubation, 100-bp dsDNA transfection for 24 h
h-cGAS = target: T1, h-cGAS (Homo sapiens, UniProt Q8N884); assay: cGAS biochemical assay, RapidFire 365 mass spectrometry (RF-MS); settings: full-length h-cGAS 100 nM, dsDNA 25 nM, ATP and GTP 100 μM, 7 h at RT
T1 construct: The final concentration of full-length h-cGAS, dsDNA, ATP, and GTP were 100 nM

human PBMCs = assay: IFNB1 mRNA expression, qRT-PCR, human PBMCs; assay type: cell-based; settings: PBMC, 4 hours post-transfection of dsDNA
[2] = IFNB1 mRNA, 4 hours post-transfection of dsDNA
[3] = THP-1, IFNB1 mRNA, 4 hours post-transfection of dsDNA
[4] = fresh PBMCs, read-out: Fresh human PBMCs, qRT-PCR IC50

T1 sequence (Q8N884 whole entry): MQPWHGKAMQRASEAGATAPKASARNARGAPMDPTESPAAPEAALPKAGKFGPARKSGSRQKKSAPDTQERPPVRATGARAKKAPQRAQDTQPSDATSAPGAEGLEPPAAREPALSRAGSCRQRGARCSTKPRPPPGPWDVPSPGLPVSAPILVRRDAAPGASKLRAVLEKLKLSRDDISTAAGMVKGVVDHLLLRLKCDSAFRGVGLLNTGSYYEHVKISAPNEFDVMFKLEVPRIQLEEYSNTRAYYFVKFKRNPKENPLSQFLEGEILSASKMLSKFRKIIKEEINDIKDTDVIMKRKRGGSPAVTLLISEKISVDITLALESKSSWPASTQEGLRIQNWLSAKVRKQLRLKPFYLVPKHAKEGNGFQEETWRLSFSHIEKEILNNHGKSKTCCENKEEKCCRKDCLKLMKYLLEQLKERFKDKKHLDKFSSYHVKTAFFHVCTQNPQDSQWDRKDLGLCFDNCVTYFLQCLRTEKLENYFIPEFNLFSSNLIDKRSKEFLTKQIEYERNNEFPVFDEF

SMILES | IC50 [1, 2] | IC50 (THP1 cells; [3]) | IC50 (THP1-Dual cells) | IC50 (h-cGAS) | IC50 (human PBMCs; [4]) | IC50 ([1]; 4 h) | IC50 (THP1 cells; THP-1, 4 h) | IC50 (human PBMCs; freeze-thawed PBMCs, read-out: Freeze-thawed human PBMCs, qRT-PCR IC50)
O=C(CO)N1CCc2[nH]c3c(Cl)c(Cl)cc(-c4cn[nH]c4)c3c2C1 [TDI-007445, 1-(6,7-Dichloro-9-(1H-pyrazol-4-yl)-1,3,4,5-tetrahydro-2H-pyrido[4,3-b]indol-2-yl)-2-hydroxyethan-1-one] | 1200 nM | 1440 nM | 5260 nM | – | – | – | – | –
Cn1cc(-c2cc(Cl)c(Cl)c3[nH]c4c(c23)CN(C(=O)CO)CC4)cn1 [TDI-007635] | – | 2140 nM | 8140 nM | 42.8 nM | – | – | – | –
Cn1ccc(-c2cc(Cl)c(Cl)c3[nH]c4c(c23)CN(C(=O)CO)CC4)n1 [TDI-008077] | 860 nM | 930 nM | 3320 nM | 14.6 nM | 1150 nM | – | – | –
Nc1ccc(-c2cc(Cl)c(Cl)c3[nH]c4c(c23)CN(C(=O)CO)CC4)cn1 [TDI-008087] | – | – | 1970 nM | – | – | 620 nM | 950 nM | –
Cn1ccc(-c2cc(Cl)c(F)c3[nH]c4c(c23)CN(C(=O)CO)CC4)n1 [TDI-008246, 1-(7-Chloro-6-fluoro-9-(1-methyl-1H-pyrazol-3-yl)-1,3,4,5-tetrahydro-2H-pyrido[4,3-b]indol-2-yl)-2-hydroxyethan-1-one] | 600 nM | 1090 nM | 1700 nM | 23 nM | 1120 nM | – | – | 1160 nM
O=C(CO)N1CCc2[nH]c3c(F)c(Cl)cc(-n4cccn4)c3c2C1 [TDI-009013, 1-(7-chloro-6-fluoro-9-pyrazol-1-yl-1,3,4,5-tetrahydropyrido [4,3-b]indol-2-yl)-2-hydroxy-ethanone] | – | – | > 40000 nM | 583 nM | – | – | – | –
O=C(CO)N1CCc2[nH]c3c(F)c(Cl)cc(N4CCCC4=O)c3c2C1 [TDI-009072] | – | – | > 40000 nM | 18600 nM | – | – | – | –
Cn1ncc(-c2cc(Cl)c(F)c3[nH]c4c(c23)CN(C(=O)CO)CC4)n1 [TDI-009186] | – | – | 720 nM | 17.6 nM | – | – | – | –
Cn1ccc(-c2cc(Cl)c(C#N)c3[nH]c4c(c23)CN(C(=O)CO)CC4)n1 [TDI-009208] | – | – | 4400 nM | 39.2 nM | – | – | – | –
